# How the values were obtained:
# [1] = system: AR / CBP ternary complex; assay: Ternary complex formation assay (sandwich ELISA, AR capture / CBP detection) in VCaP cell lysates; type: cell-based; conditions: 1.5 hours treatment, sandwich ELISA (AR capture, CBP or p300 detection)
# How it was run: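 Anti-AR (AR 441)-coated plates capture AR from lysates of VCaP cells grown ≥3 days at 50K/well in 5% charcoal-stripped FBS, dosed with bifunctional for 1.5 h and lysed 30 min at 4 °C. Co-captured CBP/p300 is probed with rabbit mAb and HRP anti-rabbit, then QuantaRed fluorescence (570/585) is read at 0, 5 and 15 min.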
# [2] = system: VCaP cells; assay: VCaP growth inhibition assay; type: cell-based; conditions: 30 pM R1881, 9 days, CTG
# How it was run: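 Growth read by CTG luminescence after 9-day exposure to compound (final 100 nM–10 fM, 1:5 steps) plus 30 pM R1881, in phenol red-free DMEM with 5% CSS. Cells pre-incubated 72 h before dosing; IC50 by nonlinear 4-parameter regression.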
SMILES,EC50 [1] [nM],IC50 [2] [nM]
"CC(=O)N1CCc2c(c(Nc3ccc(-c4cnn(C)c4)cc3F)nn2C2CN(C3CCN(c4ncc(C(=O)NC5C(C)(C)C(Oc6ccc(C#N)c(Cl)c6)C5(C)C)cn4)CC3)C2)C1 (stereo not drawn) [Compound 5, 2-[4-[3-[5-acetyl-3-[2-fluoro-4-(1-methylpyrazol-4-yl)anilino]-6,7-dihydro-4H-pyrazolo[4,3-c]pyridin-1-yl]azetidin-1-yl]-1-piperidyl]-N-[3-(3-chloro-4-cyano-phenoxy)-2,2,4,4-tetramethyl-cyclobutyl]pyrimidine-5-carboxamide]",> 100,> 100
"CC(=O)N1CCc2c(c(N3CCCc4cc(-c5cnn(C)c5)c(C(F)F)cc43)nn2C2CCC(OC3CCN(c4ncc(C(=O)NC5C(C)(C)C(Oc6ccc(C#N)c(Cl)c6)C5(C)C)cn4)CC3)CC2)C1 (stereo not drawn) [Compound 339, 2-[4-[4-[5-acetyl-3-[7-(difluoromethyl)-6-(1-methylpyrazol-4-yl)-3,4-dihydro-2H-quinolin-1-yl]-6,7-dihydro-4H-pyrazolo[4,3-c]pyridin-1-yl]cyclohexoxy]-1-piperidyl]-N-[3-(3-chloro-4-cyano-phenoxy)-2,2,4,4-tetramethyl-cyclobutyl]pyrimidine-5-carboxamide]",< 1,≤ 0.1
"CC(=O)N1CCc2c(c(N3CCCc4cc(-c5cnn(C)c5)c(C)cc43)nn2C2CCN(CC3CCN(c4ncc(C(=O)NC5C(C)(C)C(Oc6ccc(C#N)c(C)c6)C5(C)C)cn4)CC3(C)C)CC2)C1 (stereo not drawn) [Compound 466, 2-[4-[[4-[5-acetyl-3-[7-methyl-6-(1-methylpyrazol-4-yl)-3,4-dihydro-2H-quinolin-1-yl]-6,7-dihydro-4H-pyrazolo[4,3-c]pyridin-1-yl]-1-piperidyl]methyl]-3,3-dimethyl-1-piperidyl]-N-[3-(4-cyano-3-methyl-phenoxy)-2,2,4,4-tetramethyl-cyclobutyl]pyrimidine-5-carboxamide]",< 1,0.1 to 1
"CC(=O)N1CCc2c(c(N3CCCc4cc(-c5cnn(C)c5)c(C(F)F)cc43)nn2C2CCN(C3CCC4(CC3)CC(Oc3ncc(C(=O)NC5C(C)(C)C(Oc6ccc(C#N)c(Cl)c6)C5(C)C)cn3)C4)CC2)C1 (stereo not drawn) [Compound 383, 2-[7-[4-[5-acetyl-3-[7-(difluoromethyl)-6-(1-methylpyrazol-4-yl)-3,4-dihydro-2H-quinolin-1-yl]-6,7-dihydro-4H-pyrazolo[4,3-c]pyridin-1-yl]-1-piperidyl]spiro[3.5]nonan-2-yl]oxy-N-[3-(3-chloro-4-cyano-phenoxy)-2,2,4,4-tetramethyl-cyclobutyl]pyrimidine-5-carboxamide]",< 1,0.1 to 1
"CC(=O)N1CCc2c(c(N3CCCc4cc(-c5cnn(C)c5)c(C(F)F)cc43)nn2C2CN(C3CCN(c4ncc(C(=O)NC5C(C)(C)C(Oc6ccc(C#N)c(Cl)c6)C5(C)C)cn4)CC3)C2)C1 (stereo not drawn) [Compound 11, 2-[4-[3-[5-acetyl-3-[7-(difluoromethyl)-6-(1-methylpyrazol-4-yl)-3,4-dihydro-2H-quinolin-1-yl]-6,7-dihydro-4H-pyrazolo[4,3-c]pyridin-1-yl]azetidin-1-yl]-1-piperidyl]-N-[3-(3-chloro-4-cyano-phenoxy)-2,2,4,4-tetramethyl-cyclobutyl]pyrimidine-5-carboxamide]",10 to 100,0.1 to 1
"CC(=O)N1CCc2c(c(N3CCCc4cc(-c5cnn(C)c5)c(C(F)F)cc43)nn2CCCOC2CCN(c3ncc(C(=O)NC4C(C)(C)C(Oc5ccc(C#N)c(Cl)c5)C4(C)C)cn3)CC2)C1 (stereo not drawn) [Compound 9, 2-[4-[3-[5-acetyl-3-[7-(difluoromethyl)-6-(1-methylpyrazol-4-yl)-3,4-dihydro-2H-quinolin-1-yl]-6,7-dihydro-4H-pyrazolo[4,3-c]pyridin-1-yl]propoxy]-1-piperidyl]-N-[3-(3-chloro-4-cyano-phenoxy)-2,2,4,4-tetramethyl-cyclobutyl]pyrimidine-5-carboxamide]",< 1,0.1 to 1
"COC1CN(c2ncc(C(=O)NC3C(C)(C)C(Oc4ccc(C#N)c(Cl)c4)C3(C)C)cn2)CCC1CN1CCC(n2nc(N3CCCc4cc(-c5cnn(C)c5)c(C(F)F)cc43)c3c2CCN(C(C)=O)C3)CC1 (stereo not drawn) [Compound 329, 2-[4-[[4-[5-acetyl-3-[7-(difluoromethyl)-6-(1-methylpyrazol-4-yl)-3,4-dihydro-2H-quinolin-1-yl]-6,7-dihydro-4H-pyrazolo[4,3-c]pyridin-1-yl]-1-piperidyl]methyl]-3-methoxy-1-piperidyl]-N-[3-(3-chloro-4-cyano-phenoxy)-2,2,4,4-tetramethyl-cyclobutyl]pyrimidine-5-carboxamide]",< 1,≤ 0.1
"CC(=O)N1CCc2c(c(N3CCCc4cc(-c5cnn(C)c5)c(C(F)F)cc43)nn2C2CCC(CN3CCN(c4ncc(C(=O)NC5C(C)(C)C(Oc6ccc(C#N)c(Cl)c6)C5(C)C)cn4)CC3)CC2)C1 (stereo not drawn) [Compound 318, 2-[4-[[4-[5-acetyl-3-[7-(difluoromethyl)-6-(1-methylpyrazol-4-yl)-3,4-dihydro-2H-quinolin-1-yl]-6,7-dihydro-4H-pyrazolo[4,3-c]pyridin-1-yl]cyclohexyl]methyl]piperazin-1-yl]-N-[3-(3-chloro-4-cyano-phenoxy)-2,2,4,4-tetramethyl-cyclobutyl]pyrimidine-5-carboxamide]",< 1,≤ 0.1
"Cn1c(=O)sc2ccc(-c3cccc4cc(-c5ccc(CCC6CCN(c7ncc(C(=O)NC8C(C)(C)C(Oc9ccc(C#N)c(Cl)c9)C8(C)C)cn7)CC6)nc5)ncc34)cc21 (stereo not drawn) [Compound 235, N-[3-(3-chloro-4-cyano-phenoxy)-2,2,4,4-tetramethyl-cyclobutyl]-2-[4-[2-[5-[8-(3-methyl-2-oxo-1,3-benzothiazol-5-yl)-3-isoquinolyl]-2-pyridyl]ethyl]-1-piperidyl]pyrimidine-5-carboxamide]",< 1,> 100
"COc1cc(OC2C(C)(C)C(NC(=O)c3ccc(OC4CC5(CCC(N6CCC(n7nc(N8CCCc9cc(-c%10cnn(C)c%10)c(C(F)F)cc98)c8c7CCN(C(C)=O)C8)CC6)CC5)C4)cc3)C2(C)C)ccc1C#N (stereo not drawn) [Compound 384, 4-[7-[4-[5-acetyl-3-[7-(difluoromethyl)-6-(1-methylpyrazol-4-yl)-3,4-dihydro-2H-quinolin-1-yl]-6,7-dihydro-4H-pyrazolo[4,3-c]pyridin-1-yl]-1-piperidyl]spiro[3.5]nonan-2-yl] oxy-N-[3-(4-cyano-3-methoxy-phenoxy)-2,2,4,4-tetramethyl-cyclobutyl]benzamide]",< 1,≤ 0.1
"CC(=O)N1CCc2c(c(N3CCCc4cc(-c5cnn(C)c5)c(C)cc43)nn2C2CCN(C3CCC4(CC3)CN(c3ncc(C(=O)NC5C(C)(C)C(Oc6ccc(C#N)c(C)c6)C5(C)C)cn3)C4)CC2)C1 (stereo not drawn) [Compound 471, 2-[7-[4-[5-acetyl-3-[7-methyl-6-(1-methylpyrazol-4-yl)-3,4-dihydro-2H-quinolin-1-yl]-6,7-dihydro-4H-pyrazolo[4,3-c]pyridin-1-yl]-1-piperidyl]-2-azaspiro[3.5]nonan-2-yl]-N-[3-(4-cyano-3-methyl-phenoxy)-2,2,4,4-tetramethyl-cyclobutyl]pyrimidine-5-carboxamide]",< 1,0.1 to 1
"CC(=O)N1CCc2c(c(N3CCCc4cc(-c5cnn(C)c5)c(C(F)F)cc43)nn2C2CCC(CN3CCN(c4ncc(C(=O)NC5C(C)(C)C(Oc6ccc(C#N)c(Cl)c6)C5(C)C)cn4)CC3)CC2)C1 (stereo not drawn) [Compound 320, 2-[4-[[4-[5-acetyl-3-[7-(difluoromethyl)-6-(1-methylpyrazol-4-yl)-3,4-dihydro-2H-quinolin-1-yl]-6,7-dihydro-4H-pyrazolo[4,3-c]pyridin-1-yl]cyclohexyl]methyl]piperazin-1-yl]-N-[3-(3-chloro-4-cyano-phenoxy)-2,2,4,4-tetramethyl-cyclobutyl]pyrimidine-5-carboxamide]",< 1,0.1 to 1
"Cn1cc(-c2cc3c(cc2C(F)F)N(c2cc(C4CCN(CC5CCN(c6ncc(C(=O)NC7C(C)(C)C(Oc8ccc(C#N)c(Cl)c8)C7(C)C)cn6)CC5)CC4)c4c(c2)n(C)c(=O)n4C)CCC3)cn1 (stereo not drawn) [Compound 214, N-[3-(3-chloro-4-cyano-phenoxy)-2,2,4,4-tetramethyl-cyclobutyl]-2-[4-[[4-[6-[7-(difluoromethyl)-6-(1-methylpyrazol-4-yl)-3,4-dihydro-2H-quinolin-1-yl]-1,3-dimethyl-2-oxo-benzimidazol-4-yl]-1-piperidyl]methyl]-1-piperidyl]pyrimidine-5-carboxamide]",< 1,1 to 100
"CNC(=O)N1CCc2c(c(N3CCCc4cc(-c5cnn(C)c5)c(C(F)F)cc43)nn2C2CCN(c3ncc(C(=O)NC4C(C)(C)C(Oc5ccc(C#N)c(Cl)c5)C4(C)C)cn3)CC2)C1 (stereo not drawn) [Compound 93, 1-[1-[5-[[3-(3-chloro-4-cyano-phenoxy)-2,2,4,4-tetramethyl-cyclobutyl]carbamoyl]pyrimidin-2-yl]-4-piperidyl]-3-[7-(difluoromethyl)-6-(1-methylpyrazol-4-yl)-3,4-dihydro-2H-quinolin-1-yl]-N-methyl-6,7-dihydro-4H-pyrazolo[4,3-c]pyridine-5-carboxamide]",> 100,0.1 to 1
"CC(=O)N1CCc2c(c(N3CCCc4cc(-c5ccn(C)n5)c(C(F)F)cc43)nn2C2CCN(CC3CCC(n4cc(C(=O)NC5C(C)(C)C(Oc6ccc(C#N)c(Cl)c6)C5(C)C)cn4)CC3)CC2)C1 (stereo not drawn) [Compound 241, 1-[4-[[4-[5-acetyl-3-[7-(difluoromethyl)-6-(1-methylpyrazol-3-yl)-3,4-dihydro-2H-quinolin-1-yl]-6,7-dihydro-4H-pyrazolo[4,3-c]pyridin-1-yl]-1-piperidyl]methyl]cyclohexyl]-N-[3-(3-chloro-4-cyano-phenoxy)-2,2,4,4-tetramethyl-cyclobutyl]pyrazole-4-carboxamide]",1 to 10,0.1 to 1

# — patent US20250129070A1, “BIFUNCTIONAL ANDROGEN RECEPTOR COMPOUNDS” (priority 2023, published 2025)
